Tests used:
[1] = test system: 7SM0032; test: Apoptosis (TUNEL assay), nonmalignant cells; format: cell-based, human; conditions: 500 nM, 24 h; 7SM0032 cells
Procedure: FIGS. 3A-3D. Therapeutic properties of AOH1996. FIG. 3A: Normal cells (7SM0032) or cancer cells (SH-SY5Y and SK-N-BE(2)c) cells were fixed, stained with PI, and analyzed by flow cytometry following treatment with 500 nM AOH1996 for the indicated time. FIG. 3B: SK-N-DZ neuroblastoma cells and nonmalignant 7SM0032 stem cells were incubated with 500 nM AOH1996 for 24 h. Then, after being fixed on slides, cell apoptosis were analyzed by a TUNEL assay. Left: TMR fluorophore attached to the free ends of DNA indicates cells undergoing apoptosis. DAPI stained nuclei also shown. Right: Average abundance ±S.D. of apoptotic 7SM0032 (black histogram) and SK-N-DZ (grey histogram) cells relative to the total number of cells are shown in 5 randomly selected fields. […] The relative number of colonies determined in triplicates for each treatment condition were averaged and graphed ±SDs (*, P<0.01). […] Cell growth was measured as the percentage of cell confluence by imaging every 6 h for a total of 48 h.
Cell apoptosis was measured on a chamber slide at a seeding density of 1×10^5/mL. After treatment with 500 nM AOH1996 for 24 h, cells were fixed and analyzed by a TUNEL assay using the TMR red in situ cell death detection kit (Roche Diagnostics).

[2] = Oral pharmacokinetic study in mice; format: in vivo, ES1^e/SCID mice
Procedure: FIGS. 4A-4H. Pharmacokinetics and anti-tumor growth activity of AOH1996 in vivo. FIG. 4A: After oral administration, the plasma concentrations of AOH1996 from three male and three female ES1^e/SCID mice at the indicated time points were averaged and graphed ±S.D. The inset contains PK parameters determined by a standard noncompartmental method. FIG. 4B: A similar PK study of AOH1996 was performed in dogs. FIGS. 4C-4E: Mice bearing the xenograft tumors of neuroblastoma (FIG. 4C: SK-N-BE(2)c), breast cancer (FIG. 4D: MDA-MB-468), and small-cell lung cancer (FIG. 4E: H82) were given vehicle only (black) or 40 mg/kg of AOH1996 (grey) twice daily immediately after the first measurement. Tumor sizes were measured by a dial caliper each week. Tumor volumes (0.4×L×W^2) were averaged and graphed ±S.E. (*, P<0.01). FIG. 4F: Animal body weight was monitored throughout the studies as an indicator of toxicity. Shown is a typical study results from the study of the SK-N-BE(2)c tumor model described in (FIG. 4C). FIG. 4G: The levels of phosphor-Chk1 (pChk1) and γH2A.X in SK-N-BE(2)c derived tumor samples were analyzed by IHC. Shown are representative images taken from tumors treated by vehicle only or by 40 mg/kg AOH1996. FIG. 4H: ES1^e/SCID mice bearing SK-N-AS derived xenograft tumors were treated with either 80 mg/kg of AOH1996 (black, n=7) for 8 d beginning 8 d after tumor implantation, 15 mg/kg of CPT-11 (n=8) for 3 d beginning 12 d after tumor implantation, or both agents (combination, n=8) under the same dosages and schedules as they were dosed alone. Mice implanted with the same tumor and left untreated were used as control (n=8). Shown are the survival graphs. The p values determined by the Log-rank (Mantel-Cox) test between combination treatment and each of the control groups are p=0.0003 (Combination vs. NoRx), p=0.005 (Combination vs. AOH1996 alone), and p=0.024 (Combination vs. CPT-11 alone).
The improved stability of AOH1996 (FIGS. 12A-12E) translated into a significant benefit in the pharmacokinetics (PK).
Pharmacokinetic (PK) study in animals. An oral dosing solution was prepared by dissolving AOH1996 (40 mg) in a mixture of Kolliphor EL (840 mg) and Poloxamer P124 (120 mg). For the mouse study, blood samples were collected from ES1^e/SCID mice (3 male and 3 female) per dosing group by cardiac puncture at 10, 20, and 30 min and 1, 2, 4, 6, and 24 h after dosing. For the dog study, blood samples were collected from 3 male beagle dogs per dosing group by venipuncture of peripheral veins at 5, 15, and 30 min and 1, 2, 4, 8, 12, and 24 h after dosing. Following removal of blood cells, plasma concentration of AOH1996 was determined by LC-MS/MS as described (Gu et al., 2018). Oral PK was determined using standard non-compartmental methods.

SMILES: COc1cccc(Oc2ccccc2NC(=O)CNC(=O)c2cccc3ccccc23)c1 [AOH1996, N-(2-((2-(3-methoxyphenoxy)phenyl)amino)-2-oxoethyl)-1-naphthamide]
- apoptosis [1]: Nor does it induce apoptosis in 7SM0032 cells
- half-life ([2]; 40 mg/kg, mice): 4.33 h
- increase in area under curve (AUC) vs AOH1160 ([2]; 40 mg/kg, mice): ~4%
- increase in half-life vs AOH1160 ([2]; 40 mg/kg, mice): ~27%
- increase in peak concentration (Cmax) vs AOH1160 ([2]; 40 mg/kg, mice): ~40%
- absorption into circulation ([2]; animals, data not shown): ~90%
